No end group written: not given here.
Columns and labels:
[1] = system: cell aggregates from human iPS cells; test: Comparison of SAG treatment period on ACTH secretion capacity of cell aggregates from human iPS cells; type: cell-based; settings: SAG until day 30 versus continued after day 30 (days 61, 103, 131)
Protocol: Cell aggregates containing hypothalamic cells, pituitary progenitor cells, and pituitary hormone-producing cells were produced using the same differentiation induction method as in Example 1 (method without cell sorting using anti-EpCAM antibody). Regarding the SAG treatment period, two groups of a group in which SAG is added from immediately after the start of differentiation induction until day 30 (see FIG. 2), and a group so in which SAG is added from immediately after the start of differentiation induction and after day 30 (until days 61, 103, and 131) were set, and the ACTH secretion capacity was compared.

[2] = system: cell aggregates containing pituitary hormone-producing cells (reaggregated EpCAM-positive cells from human ES cells); test: ACTH stimulation test using CRH or dexamethasone on reaggregated EpCAM-positive cell aggregates (ACTH ELISA of culture supernatant); type: cell-based; settings: 24 hr
Protocol: An ACTH stimulation test using CRH (manufactured by NIPRO ES PHARMA CO., LTD.) was performed using cell aggregates obtained by purifying and reaggregating cell aggregates on day 62 after the start of differentiation induction and suspension culturing for 41 days. Twenty cell aggregates were transferred to a 10 cm suspension culture dish containing a serum-free medium (10 mL) supplemented with 20% KSR, cultured for 24 hr under condition of 37° C., 40% 02, and the culture supernatant was recovered. The cell aggregates were washed with a serum-free medium supplemented with 20% KSR, transferred to a new 10 cm suspension culture dish containing a serum-free medium (10 mL) supplemented with 20% KSR, and CRH 5 μg/mL was added. After culturing for 24 hr under condition of 37° C., 40% O2, the culture supernatant was recovered. The ACTH concentration in the collected culture supernatant was measured by the ELISA method used in clinical testing (testing outsourced to SRL, Inc.).
In addition, the response of EpCAM-positive cell reaggregates to hormones was also examined. On day 60 after the start of differentiation induction, cell sorting was performed using an anti-EpCAM antibody, and then EpCAM-positive cells were reaggregated and cultured until day 103 after the start of differentiation induction. Thereafter, an ACTH stimulation test using CRH (manufactured by NIPRO ES PHARMA CO., LTD.) or dexamethasone (DX, manufactured by Aspen Japan K.K.) was conducted. Specifically, 20 cell aggregates were transferred to a 10 cm suspension culture dish containing 10 mL of serum-free medium supplemented with 20% KSR, and after culturing for 24 hr under conditions of 37° C., 40% 02, the culture supernatant was recovered. […] The ACTH concentration in the recovered culture supernatant was measured by the ELISA method used in clinical testing (testing outsourced to SRL, Ltd.). […]

hypopituitary mice = test: Transplantation of EpCAM-positive cell reaggregates under the kidney capsule of hypopituitary mice; blood ACTH with CRH, dexamethasone or LPS stimulation; type: in vivo, mouse; design: dose or concentration left out as unconfirmed; settings: CRH intraperitoneal; blood 1 hr after; 4, 12, 24 weeks after transplantation
Protocol: Thereafter, the cells were cultured up to day 107 after the start of differentiation induction and transplanted to under the capsule of the left kidney of hypopituitary mice (10-17 weeks old) whose pituitary was surgically removed (transplantation group). A control group (sham group) was also set in which only the transplantation procedure was performed and no EpCAM-positive cells were transplanted. In addition, hypopituitary mice whose pituitary gland was surgically removed were produced by performing using a transaural approach on SCID mice (7-9 weeks old, male). […] CRH stimulation was applied to the transplantation group and the sham group, and the effect on ACTH secretion capacity was examined. Specifically, mice were administered with CRH (2 pg/kg, intraperitoneal administration) 4, 12, or 24 weeks after transplantation, and blood was collected before CRH administration and 1 hr after CHR administration. Each blood ACTH concentration was measured using ACTH ELISA kit (MD Bioproducts).

[3] = system: cell aggregates containing pituitary hormone-producing cells (day 63 sort, DX treated for 14 days); test: GH stimulation test using GRF and GH suppression test using somatostatin; type: cell-based, human; settings: day 63 sort + 40 days, DX 14 days; GRF 2 μg/mL, 24 hr
Protocol: Using cell aggregates obtained by purifying and reaggregating cell aggregates on day 63 after the start of differentiation induction, suspension culturing for 40 days, and treating with DX for 14 days, a GH stimulation test using GRF and a GH suppression test using somatostatin were conducted. Fifteen cell aggregates were transferred to a 6-well culture plate (manufactured by SUMITOMO BAKELITE CO., LTD., for suspension culturing, culture area 9.2 cm^2) containing a serum-free medium (2 mL) supplemented with 20% KSR, cultured for 24 hr under conditions of 37° C., 40% O2, and the culture supernatant was recovered. The cell aggregates were washed with a serum-free medium supplemented with 20% KSR, transferred to a 6-well culture plate containing a new serum-free medium (2 mL) supplemented with 20% KSR, and GRF 2 μg/mL or somatostatin 100 ng/mL was added. After culturing for 24 hr under condition of 37° C., 40% O2, the culture supernatant was recovered. […]

Molecule: CNC1CCC(N(Cc2cccc(-c3ccncc3)c2)C(=O)c2sc3ccccc3c2Cl)CC1 (stereo not drawn) [SAG, N-Methyl-N′-(3-pyridinylbenzyl)-N′-(3-chlorobenzo[b]thiophene-2-carbonyl)-1,4-diaminocyclohexane]
- ACTH secretion capacity depending on SAG treatment period [1]: improved by stopping SAG treatment on day 30

Molecule: C[C@@H]1C[C@H]2[C@@H]3CCC4=CC(=O)C=C[C@]4(C)[C@@]3(F)[C@@H](O)C[C@]2(C)[C@@]1(O)C(=O)CO [dexamethasone]
- decrease of ACTH secretion amount by dexamethasone stimulation ([2]; day 60 sort, cultured to day 103, 500 ng/mL dexamethasone): about 50%

Molecule: CRH: CRH (manufactured by NIPRO ES PHARMA CO., LTD.) used for the ACTH stimulation test (SEEPPISLDLTFHLLREVLEMARAEQLAQQAHSNRKLMEII; ends and bridges not checked; UniProt P06850 154-194, looked up)
- blood ACTH concentration after CRH stimulation in transplantation group (hypopituitary mice): further increase
- increase of ACTH secretion amount by CRH stimulation ([2]; day 60 sort, cultured to day 103, 5 μg/mL CRH): about 2.2 times
- increase of the amount of ACTH secretion by addition of CRH ([2]; day 62 sort + 41 days suspension culture, CRH 5 μg/mL): a little less than two times

Molecule: GRF: GRF used for the GH stimulation test (YADAIFTNSYRKVLGQLSARKLLQDIMSRQQGESNQERGARARL; ends and bridges not checked; UniProt P01286 32-75, looked up)
- increase of the amount of GH secretion by addition of GRF [3]: a little less than two times

From patent US20240400983A1, “CELL AGGREGATE INCLUDING PITUITARY HORMONE-PRODUCING CELLS AND METHOD FOR PRODUCING SAME” (Sumitomo Pharma Co., Ltd., priority 2021, published 2024)
